Test results: patent US20230295149A1, “MONOBACTAM COMPOUNDS, THEIR PREPARATION AND USE AS ANTIBACTERIAL AGENTS” (NINGXIA ACADEMY OF AGRICULTURE AND FORESTRY SCIENCES, priority 2020, published 2023)

Legend:
Test in all cases: MIC determination, broth microdilution
Assay type in all cases: cell-based
[1] = test system: A. baumannii 19606; settings: Acinetobacter baumannii, 37° C., 18-24 hours, read-out: Strain8 MIC
Experimental: (§1) Compounds of this invention were tested for antimicrobial activity by determining minimum inhibitory concentrations (MICs, in μg/mL) using the broth microdilution method according to the guidelines of the Clinical Laboratories and Standards Institute (“Methods for Dilution Antimicrobial Susceptibility Tests for Bacteria that Grow Aerobically”, Approved standard, 7th ed., Clinical and Laboratory Standards Institute (CLSI) Document M7-A8, Wayne, Pa., USA, 2009.). Test compounds were dissolved in DMSO. The compounds were then diluted in microbial growth medium (Mueller Hinton Broth II, cation adjusted) resulting in a final concentration range of 0.063-64 μg/mL in serial two-fold dilution. In all cases the final DMSO concentration was less than 0.5%. Bacteria were added to 96-well microtitre plates containing the two-fold dilutions of the compounds; the final cell density was approximately 5×10^5 colony forming units/mL (CFU/mL). Plates were incubated at 37° C. for 18-24 hours and read visually. The MIC, i.e. the lowest concentration of the test compound that inhibited visible growth of the bacteria, was recorded. The same assay conditions were used when the compounds of this invention were tested in combination with—lactamase inhibitors. While the compounds of this invention were serially diluted as described above, a constant concentration of the inhibitor of 4 mg/L was used. Bacterial strains that were used to evaluate the antimicrobial activity using the MIC determination included but were not limited to E. coli clinical isolate, E. coli 8739, K. pneumoniae clinical isolate, K. pneumoniae 700603, E. cloacae clinical isolate, E. cloacae 700323, A. baumannii clinical isolate, A. baumannii 19606, P. aeruginosa clinical isolate, P. aeruginosa 9027.

[2] = test system: A. baumannii clinical isolate; settings: Acinetobacter baumannii, 37° C., 18-24 hours, read-out: Strain 7 MIC
Experimental: as §1

[3] = test system: E. cloacae 700323; settings: Enterobacter cloacae, 37° C., 18-24 hours, read-out: Strain 6 MIC
Experimental: as §1

[4] = test system: E. cloacae clinical isolate; settings: Enterobacter cloacae, 37° C., 18-24 hours, read-out: Strain5 MIC
Experimental: as §1

[5] = test system: E. coli 8739; settings: Escherichia coli, 37° C., 18-24 hours, read-out: Strain 2 MIC
Experimental: as §1

[6] = test system: E. coli clinical isolate; settings: Escherichia coli, 37° C., 18-24 hours, read-out: Strain 1 MIC
Experimental: as §1

[7] = test system: K. pneumoniae 700603; settings: Klebsiella pneumoniae, 37° C., 18-24 hours, read-out: Strain 4 MIC
Experimental: as §1

[8] = test system: K. pneumoniae clinical isolate; settings: Klebsiella pneumoniae, 37° C., 18-24 hours, read-out: Strain 3 MIC
Experimental: as §1

[9] = test system: P. aeruginosa 9027; settings: Pseudomonas aeruginosa, 37° C., 18-24 hours, read-out: Strain 10 MIC
Experimental: as §1

[10] = test system: P. aeruginosa clinical isolate; settings: Pseudomonas aeruginosa, 37° C., 18-24 hours, read-out: Strain 9 MIC
Experimental: as §1

| MIC [1] | MIC [2] | MIC [3] | MIC [4] | MIC [5] | MIC [6] | MIC [7] | MIC [8] | MIC [9] | MIC [10] | Structure (SMILES) |
| --- | --- | --- | --- | --- | --- | --- | --- | --- | --- | --- |
| 32 µg/mL | > 64 µg/mL | > 64 µg/mL | > 64 µg/mL | 16 µg/mL | > 64 µg/mL | 64 µg/mL | 64 µg/mL | 16 µg/mL | > 64 µg/mL | C[C@H]1[C@H](NC(=O)/C(=N\OC(C)(C)C(=O)O)c2csc(N)n2)C(=O)N1S(=O)(=O)O [AZT, Aztreonam, reference compound] |
| > 64 µg/mL | > 64 µg/mL | > 64 µg/mL | > 64 µg/mL | > 64 µg/mL | > 64 µg/mL | > 64 µg/mL | > 64 µg/mL | > 64 µg/mL | > 64 µg/mL | CC(C)(O/N=C(\C(=O)N[C@@H]1C(=O)N2C(C(=O)[O-])=C(C[n+]3ccccc3)CS[C@H]12)c1csc(N)n1)C(=O)O [CAZ, Ceftazidime, reference compound] |
| 8 µg/mL | 16 µg/mL | 8 µg/mL | 8 µg/mL | 1 µg/mL | 8 µg/mL | 8 µg/mL | 4 µg/mL | 2 µg/mL | 2 µg/mL | CC1(C)[C@H](NC(=O)/C(=N\O[C@@H](COc2ccc(C(=N)NC3CCNCC3)cc2)C(=O)O)c2nc(N)sc2Cl)C(=O)N1OS(=O)(=O)O [Example 1, (S)-2-((((Z)-1-(2-Amino-5-chlorothiazol-4-yl)-2-(((S)-2,2-dimethyl-4-oxo-1-(sulfooxy)azetidin-3-yl)amino)-2-oxoethylidene)amino)oxy)-3-(4-(N-(piperidin-4-yl)carbamimidoyl)phenoxy)propanoic acid] |
| 32 µg/mL | 8 µg/mL | 64 µg/mL | 8 µg/mL | 0.125 µg/mL | 0.5 µg/mL | 64 µg/mL | 16 µg/mL | 1 µg/mL | 1 µg/mL | CC1(C)[C@H](NC(=O)/C(=N\O[C@@H](COc2ccc(C(=N)NC3CCNCC3)cc2)C(=O)O)c2nsc(N)n2)C(=O)N1OS(=O)(=O)O [Example 2, (S)-2-((((Z)-1-(5-Amino-1,2,4-thiadiazol-3-yl)-2-(((S)-2,2-dimethyl-4-oxo-1-(sulfooxy)azetidin-3-yl)amino)-2-oxoethylidene)amino)oxy)-3-(4-(N-(piperidin-4-yl)carbamimidoyl)phenoxy)propanoic acid] |
| 8 µg/mL | 16 µg/mL | 8 µg/mL | 8 µg/mL | 0.5 µg/mL | 2 µg/mL | 8 µg/mL | 2 µg/mL | 1 µg/mL | 4 µg/mL | CC1(C)[C@H](NC(=O)/C(=N\O[C@@H](COc2ccc(C(=N)N[C@@H]3CCCNC3)cc2)C(=O)O)c2nc(N)sc2Cl)C(=O)N1OS(=O)(=O)O [Example 3, (S)-2-((((Z)-1-(2-Amino-5-chlorothiazol-4-yl)-2-(((S)-2,2-dimethyl-4-oxo-1-(sulfooxy)azetidin-3-yl)amino)-2-oxoethylidene)amino)oxy)-3-(4-(N—((R)-piperidin-3-yl)carbamimidoyl)phenoxy)propanoic acid] |
| 16 µg/mL | 8 µg/mL | 64 µg/mL | 16 µg/mL | 0.25 µg/mL | 0.25 µg/mL | 64 µg/mL | 8 µg/mL | 1 µg/mL | 2 µg/mL | CC1(C)[C@H](NC(=O)/C(=N\O[C@@H](COc2ccc(C(=N)N[C@@H]3CCCNC3)cc2)C(=O)O)c2nsc(N)n2)C(=O)N1OS(=O)(=O)O [Example 4, (S)-2-((((Z)-1-(5-Amino-1,2,4-thiadiazol-3-yl)-2-(((S)-2,2-dimethyl-4-oxo-1-(sulfooxy)azetidin-3-yl)amino)-2-oxoethylidene)amino)oxy)-3-(4-(N—((R)-piperidin-3-yl)carbamimidoyl)phenoxy)propanoic acid] |
| 4 µg/mL | 8 µg/mL | 4 µg/mL | 2 µg/mL | 0.25 µg/mL | 0.25 µg/mL | 4 µg/mL | 1 µg/mL | 0.5 µg/mL | 1 µg/mL | CC1(C)[C@H](NC(=O)/C(=N\O[C@@H](COc2ccc(C(=N)N[C@H]3CCNC3)cc2)C(=O)O)c2nc(N)sc2Cl)C(=O)N1OS(=O)(=O)O [Example 5, (S)-2-((((Z)-1-(2-Amino-5-chlorothiazol-4-yl)-2-(((S)-2,2-dimethyl-4-oxo-1-(sulfooxy)azetidin-3-yl)amino)-2-oxoethylidene)amino)oxy)-3-(4-(N—((S)-pyrrolidin-3-yl)carbamimidoyl)phenoxy)propanoic acid] |
| 16 µg/mL | 4 µg/mL | 32 µg/mL | 4 µg/mL | 0.125 µg/mL | 0.5 µg/mL | 64 µg/mL | 1 µg/mL | 0.5 µg/mL | 2 µg/mL | CC1(C)[C@H](NC(=O)/C(=N\O[C@@H](COc2ccc(C(=N)N[C@H]3CCNC3)cc2)C(=O)O)c2nsc(N)n2)C(=O)N1OS(=O)(=O)O [Example 6, (S)-2-((((Z)-1-(5-Amino-1,2,4-thiadiazol-3-yl)-2-(((S)-2,2-dimethyl-4-oxo-1-(sulfooxy)azetidin-3-yl)amino)-2-oxoethylidene)amino)oxy)-3-(4-(N—((S)-pyrrolidin-3-yl)carbamimidoyl)phenoxy)propanoic acid] |
| 8 µg/mL | 4 µg/mL | 16 µg/mL | 8 µg/mL | 0.25 µg/mL | 0.125 µg/mL | 32 µg/mL | 2 µg/mL | 0.5 µg/mL | 0.5 µg/mL | CC1(C)[C@H](NC(=O)/C(=N\O[C@@H](COc2ccc(C(=N)NC3CNC3)cc2)C(=O)O)c2nsc(N)n2)C(=O)N1OS(=O)(=O)O [Example 7, (S)-2-((((Z)-1-(5-Amino-1,2,4-thiadiazol-3-yl)-2-(((S)-2,2-dimethyl-4-oxo-1-(sulfooxy)azetidin-3-yl)amino)-2-oxoethylidene)amino)oxy)-3-(4-(N-(azetidin-3-yl)carbamimidoyl)phenoxy)propanoic acid] |
| 4 µg/mL | 8 µg/mL | 8 µg/mL | 8 µg/mL | 0.25 µg/mL | 0.5 µg/mL | 8 µg/mL | 8 µg/mL | 1 µg/mL | 1 µg/mL | CC1(C)[C@H](NC(=O)/C(=N\O[C@@H](COc2ccc(C(=N)NC3CNC3)cc2)C(=O)O)c2nc(N)sc2Cl)C(=O)N1OS(=O)(=O)O [Example 8, (S)-2-((((Z)-1-(2-Amino-5-chlorothiazol-4-yl)-2-(((S)-2,2-dimethyl-4-oxo-1-(sulfooxy)azetidin-3-yl)amino)-2-oxoethylidene)amino)oxy)-3-(4-(N-(azetidin-3-yl)carbamimidoyl)phenoxy)propanoic acid] |
| 16 µg/mL | 32 µg/mL | 32 µg/mL | 64 µg/mL | 0.5 µg/mL | 1 µg/mL | 64 µg/mL | 32 µg/mL | 1 µg/mL | 16 µg/mL | C[C@H]1[C@H](NC(=O)/C(=N\O[C@@H](COc2ccc(C(=N)N[C@H]3CCCNC3)cc2)C(=O)O)c2nc(N)sc2Cl)C(=O)N1S(=O)(=O)O [Example 9, (S)-2-((((Z)-1-(2-Amino-5-chlorothiazol-4-yl)-2-(((2S,3S)-2-methyl-4-oxo-1-sulfoazetidin-3-yl)amino)-2-oxoethylidene)amino)oxy)-3-(4-(N—((S)-piperidin-3-yl)carbamimidoyl)phenoxy)propanoic acid] |
